Source: PubChem BioAssay (NCI)
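Test compounds were applied to cells in 96-well plates for 48 hours at 5 doses. TGI marks complete inhibition of growth.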

Experiments:
Experiment in all cases: DTP human tumour cell line panel, 48 h
SR leukemia = tested on: SR leukemia
TK-10 renal = tested on: TK-10 renal
786-0 renal = tested on: 786-0 renal
SNB-75 CNS = tested on: SNB-75 CNS
RXF 393 renal = tested on: RXF 393 renal
COLO 205 colon = tested on: COLO 205 colon
NCI-H226 lung = tested on: NCI-H226 lung
UO-31 renal = tested on: UO-31 renal
NCI-H23 lung = tested on: NCI-H23 lung
HS 578T breast = tested on: HS 578T breast
PC-3 prostate = tested on: PC-3 prostate
A498 renal = tested on: A498 renal
UACC-257 melanoma = tested on: UACC-257 melanoma
NCI/ADR-RES ovarian = tested on: NCI/ADR-RES ovarian
SK-MEL-2 melanoma = tested on: SK-MEL-2 melanoma
MCF7 breast = tested on: MCF7 breast
KM12 colon = tested on: KM12 colon
BT-549 breast = tested on: BT-549 breast
SW-620 colon = tested on: SW-620 colon
SK-OV-3 ovarian = tested on: SK-OV-3 ovarian
IGROV1 ovarian = tested on: IGROV1 ovarian
HCC-2998 colon = tested on: HCC-2998 colon
SK-MEL-5 melanoma = tested on: SK-MEL-5 melanoma
SF-539 CNS = tested on: SF-539 CNS
K-562 leukemia = tested on: K-562 leukemia
MOLT-4 leukemia = tested on: MOLT-4 leukemia
LOX IMVI melanoma = tested on: LOX IMVI melanoma
MDA-MB-231 breast = tested on: MDA-MB-231 breast
MDA-MB-435 = tested on: MDA-MB-435
NCI-H522 lung = tested on: NCI-H522 lung
U251 CNS = tested on: U251 CNS
UACC-62 melanoma = tested on: UACC-62 melanoma
SF-268 CNS = tested on: SF-268 CNS
SNB-19 CNS = tested on: SNB-19 CNS
HL-60(TB) leukemia = tested on: HL-60(TB) leukemia
MALME-3M melanoma = tested on: MALME-3M melanoma
A549 NSCLC = tested on: A549 NSCLC
SN12C renal = tested on: SN12C renal
SF-295 CNS = tested on: SF-295 CNS
OVCAR-5 ovarian = tested on: OVCAR-5 ovarian
CCRF-CEM leukemia = tested on: CCRF-CEM leukemia
NCI-H460 lung = tested on: NCI-H460 lung
HOP-92 NSCLC = tested on: HOP-92 NSCLC
CAKI-1 renal = tested on: CAKI-1 renal
T-47D breast = tested on: T-47D breast
MDA-N = tested on: MDA-N
HCT-116 colon = tested on: HCT-116 colon
HCT-15 colon = tested on: HCT-15 colon
HOP-62 NSCLC = tested on: HOP-62 NSCLC
RPMI-8226 leukemia = tested on: RPMI-8226 leukemia
OVCAR-3 ovarian = tested on: OVCAR-3 ovarian
HT29 colon = tested on: HT29 colon
SK-MEL-28 melanoma = tested on: SK-MEL-28 melanoma
DU-145 prostate = tested on: DU-145 prostate
M14 melanoma = tested on: M14 melanoma
ACHN renal = tested on: ACHN renal
EKVX NSCLC = tested on: EKVX NSCLC
OVCAR-8 ovarian = tested on: OVCAR-8 ovarian
OVCAR-4 ovarian = tested on: OVCAR-4 ovarian

Cc1ccc2c(=O)cc(-c3cc(C)sc3C)[nH]c2n1
TGI (SR leukemia): > 86.3 µM | TGI (TK-10 renal): > 100 µM | TGI (786-0 renal): > 100 µM | TGI (SNB-75 CNS): > 29.9 µM | TGI (RXF 393 renal): > 24.4 µM | TGI (COLO 205 colon): 7.52 µM | TGI (NCI-H226 lung): 7.62 µM | TGI (UO-31 renal): > 100 µM | TGI (NCI-H23 lung): > 24 µM | TGI (HS 578T breast): 7.15 µM | TGI (PC-3 prostate): > 30.2 µM | TGI (A498 renal): > 100 µM | TGI (UACC-257 melanoma): > 100 µM | TGI (NCI/ADR-RES ovarian): 5.29 µM | TGI (SK-MEL-2 melanoma): > 29.6 µM | TGI (MCF7 breast): > 100 µM | TGI (KM12 colon): > 100 µM | TGI (BT-549 breast): > 100 µM | TGI (SW-620 colon): 19.4 µM | TGI (SK-OV-3 ovarian): > 82.7 µM | TGI (IGROV1 ovarian): > 100 µM | TGI (HCC-2998 colon): 36.3 µM | TGI (SK-MEL-5 melanoma): 16.4 µM | TGI (SF-539 CNS): 6.25 µM | TGI (K-562 leukemia): > 100 µM | TGI (MOLT-4 leukemia): > 77.6 µM | TGI (LOX IMVI melanoma): > 58.8 µM | TGI (MDA-MB-231 breast): 65.8 µM | TGI (MDA-MB-435): 2.86 µM | TGI (NCI-H522 lung): > 22.2 µM | TGI (U251 CNS): > 100 µM | TGI (UACC-62 melanoma): > 100 µM | TGI (SF-268 CNS): > 73.4 µM | TGI (SNB-19 CNS): > 100 µM | TGI (HL-60(TB) leukemia): 6.74 µM | TGI (MALME-3M melanoma): > 100 µM | TGI (A549 NSCLC): > 39.3 µM | TGI (SN12C renal): > 93.4 µM | TGI (SF-295 CNS): 7.54 µM | TGI (OVCAR-5 ovarian): > 100 µM | TGI (CCRF-CEM leukemia): > 25.5 µM | TGI (NCI-H460 lung): > 100 µM | TGI (HOP-92 NSCLC): > 100 µM | TGI (CAKI-1 renal): > 100 µM | TGI (T-47D breast): > 100 µM | TGI (MDA-N): 1.92 µM | TGI (HCT-116 colon): > 69 µM | TGI (HCT-15 colon): > 100 µM | TGI (HOP-62 NSCLC): > 100 µM | TGI (RPMI-8226 leukemia): > 20.5 µM | TGI (OVCAR-3 ovarian): 58.6 µM | TGI (HT29 colon): 32.9 µM | TGI (SK-MEL-28 melanoma): > 100 µM | TGI (DU-145 prostate): > 94.5 µM | TGI (M14 melanoma): > 100 µM | TGI (ACHN renal): > 100 µM | TGI (EKVX NSCLC): > 100 µM | TGI (OVCAR-8 ovarian): > 37.3 µM | TGI (OVCAR-4 ovarian): > 100 µM

O=C1NC(c2ccccc2Cl)Nc2ccccc21 (stereo not drawn)
TGI (SR leukemia): > 100 µM | TGI (TK-10 renal): > 100 µM | TGI (786-0 renal): > 100 µM | TGI (SNB-75 CNS): 49.1 µM | TGI (RXF 393 renal): 63.1 µM | TGI (COLO 205 colon): > 54.1 µM | TGI (NCI-H226 lung): > 84.6 µM | TGI (UO-31 renal): > 100 µM | TGI (NCI-H23 lung): > 100 µM | TGI (HS 578T breast): 54.7 µM | TGI (PC-3 prostate): > 72.6 µM | TGI (A498 renal): > 100 µM | TGI (UACC-257 melanoma): > 100 µM | TGI (NCI/ADR-RES ovarian): 27.5 µM | TGI (SK-MEL-2 melanoma): 48.7 µM | TGI (MCF7 breast): > 100 µM | TGI (KM12 colon): > 100 µM | TGI (BT-549 breast): > 100 µM | TGI (SW-620 colon): > 30.1 µM | TGI (SK-OV-3 ovarian): > 100 µM | TGI (IGROV1 ovarian): > 100 µM | TGI (HCC-2998 colon): > 100 µM | TGI (SK-MEL-5 melanoma): > 80.5 µM | TGI (SF-539 CNS): 32.6 µM | TGI (K-562 leukemia): > 30.4 µM | TGI (MOLT-4 leukemia): > 94.4 µM | TGI (LOX IMVI melanoma): > 100 µM | TGI (MDA-MB-231 breast): > 100 µM | TGI (MDA-MB-435): 4.76 µM | TGI (NCI-H522 lung): 72.1 µM | TGI (U251 CNS): > 69.7 µM | TGI (UACC-62 melanoma): > 100 µM | TGI (SF-268 CNS): > 100 µM | TGI (SNB-19 CNS): > 74 µM | TGI (HL-60(TB) leukemia): 16.4 µM | TGI (MALME-3M melanoma): > 100 µM | TGI (A549 NSCLC): > 100 µM | TGI (SN12C renal): > 100 µM | TGI (SF-295 CNS): > 72.3 µM | TGI (OVCAR-5 ovarian): > 100 µM | TGI (CCRF-CEM leukemia): > 81.5 µM | TGI (NCI-H460 lung): > 100 µM | TGI (HOP-92 NSCLC): > 100 µM | TGI (CAKI-1 renal): 91.8 µM | TGI (T-47D breast): > 100 µM | TGI (MDA-N): 3.29 µM | TGI (HCT-116 colon): > 100 µM | TGI (HCT-15 colon): > 100 µM | TGI (HOP-62 NSCLC): > 100 µM | TGI (RPMI-8226 leukemia): 62.8 µM | TGI (OVCAR-3 ovarian): 31.3 µM | TGI (HT29 colon): > 100 µM | TGI (SK-MEL-28 melanoma): > 100 µM | TGI (DU-145 prostate): > 100 µM | TGI (M14 melanoma): > 100 µM | TGI (ACHN renal): > 100 µM | TGI (EKVX NSCLC): > 100 µM | TGI (OVCAR-8 ovarian): > 100 µM | TGI (OVCAR-4 ovarian): > 100 µM
